From patent publication US7166296B2, “Pharmaceutical formulations and ligands for use therein; mimetics for UEA-1” (Sarlan, Ltd., priority 2001, dated 2007)
Values after ≈ are worked out from the molar mass of the structure shown.

Key:
[1] = system: UEA-1 binding sites on Caco-2 cell membrane preparations; assay: Single tier competition assay: inhibition of biotinylated UEA-1 binding, compound and biotinylated UEA-1 incubated together; set-up: species or system human; details: for Av % Inhibition: Single Tier Assay, library MSI 22
Procedure: (§1) The epithelial cell binding ability of compounds and mixtures obtained from synthetic combinatorial libraries was determined by competition assays. These assays were set up to measure the inhibition of binding of biotinylated UEA-1 to membrane preparations of the epithelial cell line Caco-2 (colon carcinoma cells-2), by compounds and mixtures of the combinatorial libraries. This cell line is a conventional model for epithelial cells.
(§2) Two competition inhibition assays were used in this case, namely single tier and two tier assays. These assays differed from each other in that in the single tier assay, the mixtures/compounds and the biotinylated UEA-1 were incubated together with the Caco-2 cell membrane preparations, while in case of the two-tier assay, the mixture/compounds were allowed to incubate alone with the cell membranes in the absence of biotinylated UEA-1, which was added in the next step. Addition of the extra step in the two-tier assay was to ensure that the compounds inhibiting the binding of biotinylated UEA-1 to the Caco-2 cell membranes were doing so by themselves binding to surface receptors on the Caco-2 cells and not to the biotinylated UEA-1. Each assay will be described in detail.
(§3) • 1. Confluent Caco-2 cell monolayers (grown in 75 cm^2 flasks for up to 1 week at 37° C. and 5% CO2) were washed twice in Dulbecco's PBS (DPBS). • 2. Cell monolayers were treated with 10 mM EDTA-DPBS for 5–10 min at 37° C. and cells were harvested by centrifugation at 1000 rpm for 5 min. • 3. Cells were washed 3 times in DPBS. • 4. […] The cells were homogenised for 30 sec. • 6. The homogenates were centrifuged in hard walled tubes at 40,000 rpm for 45 min at 4° C. • 7. […] The supernatant was removed and stored on ice. The procedure was repeated adding the second supernatant to the first. • 8. The protein concentration was determined using e.g. a Bio-Rad protein assay. • 9. All fractions were stored at −80° C. prior to use. Single Tier Assays: • 1. 96-well microtiter plates were coated with membrane preparations of Caco-2 cells either by allowing them to incubate on the plates for 2½ hours at room temperature or by incubating them overnight at 4° C. 100 μl of 10 μg/ml (in 0.05 M carbonate buffer, pH 9.6) of membrane preparation was added to each well. • 2. The plates were flicked out, patted dry and blocked with bovine serum albumin (BSA)/DPBS (200 μl/well) for 1 to 4 hours at room temperature after which they were washed three times in water. • 3. […] Control wells were also set up in which the Caco-2 cell membrane preparations were incubated with unconjugated UEA-1. […] Following overnight incubation the plates were washed thoroughly (3–6 times). The plates were flicked out, patted dry and biotinylated UEA-1 was detected with commercial Streptavidin conjugated to horseradish peroxidase (HRP) (CalBiochem). […] The plates were left to incubate for an hour at room temperature. • 6. The plates were then washed 3–6 times and the biotin-streptavidin binding was detected by adding an HRP substrate OPD (orthophenyl diamine) to each well. 100 μl/well of this substrate at a final concentration of 1.6 mg/ml was added to each well. Before adding to the wells, this substrate was activated by addition of 50 μl of 3% H2O2 per plate and the reaction was allowed to develop in the dark. • 7. The reaction was stopped by adding 50 μl of 4 N H2SO4 to each well after approximately 5–10 minutes or when sufficient colour had developed. The OD490 (absorbance at 490 nm) of each well was measured using a conventional 96 well plate reading spectrophotometer. Two Tier Assays: • 1. 96 well plates were coated with Caco-2 cell membrane preparations in the same manner as described in the single tier assay. • 2. […] 100 μl at these final concentrations were added to each well. • 4. The plates were then left to incubate overnight, a step that would allow the mixtures and compounds to interact with the Caco-2 cell membranes without the presence of the competitor (biotinylated UEA-1) itself. • 5. […]

[2] = system: UEA-1 binding sites on Caco-2 cell membrane preparations; assay: Two tier competition assay: compound incubated alone with membranes, biotinylated UEA-1 added in next step; set-up: species or system human; details: for Av % Inhibition: Two Tier Assay, library MSI 22
Procedure: as §1, §2, §3

[3] = library MSI 27, read-out: Single Tier Assay IC50
[4] = library MSI 27, read-out: Two Tier Assay IC50
[5] = Table 8, galloyl constructs, read-out: IC 50 (uM) 1st tier (converted)
[6] = Table 8, galloyl constructs, read-out: IC 50 (uM) 2nd tier

SMILES | Single Tier Assay IC50 ([1]; library MSI 27) [µg/mL] | IC50 [1, 3] [µM] | Two Tier Assay IC50 ([2]; library MSI 27) [µg/mL] | IC50 [2, 4] [µM] | other results
COc1ccc(C(=O)NCCCCC(NC(=O)C(CCCCNC(=O)c2ccc(OC)c(OC)c2)NC(C)=O)C(N)=O)cc1OC (stereo not drawn) [Cpd 34] | 121.40 | 189 | 87.01 | 135 | –
CCOc1cc(C(=O)NCCCCC(NC(=O)C(CCCCNC(=O)c2cc(OCC)c(OCC)c(OCC)c2)NC(C)=O)C(N)=O)cc(OCC)c1OCC (stereo not drawn) [Cpd 35] | – | 317 | – | 317 | –
COc1cc(C(=O)NCCCCC(NC(=O)C(CCCCNC(=O)c2cc(OC)c(OC)c(OC)c2)NC(C)=O)C(N)=O)cc(OC)c1OC (stereo not drawn) [Cpd 36] | – | 355 | 125.00 | 178 | –
CC(=O)NC(CCCCNC(=O)c1cc(O)c(O)c(O)c1)C(=O)NC(CCCCNC(=O)c1cc(O)c(O)c(O)c1)C(N)=O (stereo not drawn) [Cpd 38] | 87.78 | 142 | 54.27 | 87.6 | IC 50 (ug/ml) 1st tier ([1]; Table 8, galloyl constructs): 54 µg/mL (≈ 87.1 µM); IC50 [1, 5]: 86 µM; IC 50 (ug/ml) 2nd tier ([2]; Table 8, galloyl constructs): 48 µg/mL (≈ 77.5 µM); IC50 [2, 6]: 77 µM
CC(=O)NC(CCCCNC(=O)c1ccc(O)cc1)C(=O)NC(CCCCNC(=O)c1ccc(O)cc1)C(N)=O (stereo not drawn) [Cpd 39] | – | 450 | 158.60 | 285 | –
CC(=O)NC(CCCCNC(=O)c1cc(O)cc(O)c1)C(=O)NC(CCCCNC(=O)c1cc(O)cc(O)c1)C(N)=O (stereo not drawn) [Cpd 40] | – | 425 | – | 425 | –
COc1cc(C(=O)NCCCCC(NC(=O)C(CCCCNC(=O)c2cc(OC)c(O)c(OC)c2)NC(=O)C(CCCCNC(=O)c2cc(OC)c(O)c(OC)c2)NC(=O)c2cc(OC)c(O)c(OC)c2)C(N)=O)cc(OC)c1O (stereo not drawn) [Cpd 41] | 89.77 | 80 | 83.26 | 74.2 | –
COc1ccc(C(=O)NCCCC[C@@H](NC(=O)[C@@H](CCCCNC(=O)c2ccc(OC)c(OC)c2)NC(=O)[C@@H](CCCCNC(=O)c2ccc(OC)c(OC)c2)NC(=O)c2ccc(OC)c(OC)c2)C(N)=O)cc1OC [Cpd 42] | 107.00 | 101 | 113.80 | 108 | –
CCOc1cc(C(=O)NCCCC[C@@H](NC(=O)[C@@H](CCCCNC(=O)c2cc(OCC)c(OCC)c(OCC)c2)NC(=O)[C@@H](CCCCNC(=O)c2cc(OCC)c(OCC)c(OCC)c2)NC(=O)c2cc(OCC)c(OCC)c(OCC)c2)C(N)=O)cc(OCC)c1OCC [Cpd 43] | – | 186 | – | 186 | –
COc1cc(C(=O)NCCCC[C@@H](NC(=O)[C@@H](CCCCNC(=O)c2cc(OC)c(OC)c(OC)c2)NC(=O)[C@@H](CCCCNC(=O)c2cc(OC)c(OC)c(OC)c2)NC(=O)c2cc(OC)c(OC)c(OC)c2)C(N)=O)cc(OC)c1OC [Cpd 44] | – | 212 | – | 212 | –
NC(=O)C(CCCCNC(=O)c1cc(O)c(O)c(O)c1)NC(=O)C(CCCCNC(=O)c1cc(O)c(O)c(O)c1)NC(=O)C(CCCCNC(=O)c1cc(O)c(O)c(O)c1)NC(=O)c1cc(O)c(O)c(O)c1 (stereo not drawn) [Cpd 46] | 14.92 | 14.8 | 2.00 | 1.98 | IC 50 (ug/ml) 1st tier ([1]; Table 8, galloyl constructs): 8 µg/mL (≈ 7.92 µM); IC50 [1, 5]: 8 µM; IC 50 (ug/ml) 2nd tier ([2]; Table 8, galloyl constructs): 0.6 µg/mL (≈ 0.594 µM); IC50 [2, 6]: 0.6 µM
NC(=O)[C@@H](CCCCNC(=O)c1ccc(O)cc1)NC(=O)[C@@H](CCCCNC(=O)c1ccc(O)cc1)NC(=O)[C@@H](CCCCNC(=O)c1ccc(O)cc1)NC(=O)c1ccc(O)cc1 [Cpd 47] | – | 283 | – | 283 | –
NC(=O)[C@@H](CCCCNC(=O)c1cc(O)cc(O)c1)NC(=O)[C@@H](CCCCNC(=O)c1cc(O)cc(O)c1)NC(=O)[C@@H](CCCCNC(=O)c1cc(O)cc(O)c1)NC(=O)c1cc(O)cc(O)c1 [Cpd 48] | – | 264 | – | 264 | –
COc1cc(C(=O)NCCCCC(NC(=O)C(CCCCNC(=O)c2cc(OC)c(O)c(OC)c2)NC(=O)C(CCCCNC(=O)c2cc(OC)c(O)c(OC)c2)NC(C)=O)C(N)=O)cc(OC)c1O (stereo not drawn) [Cpd 49] | 118.00 | 120 | 108.80 | 111 | –
COc1ccc(C(=O)NCCCCC(NC(=O)C(CCCCNC(=O)c2ccc(OC)c(OC)c2)NC(=O)C(CCCCNC(=O)c2ccc(OC)c(OC)c2)NC(C)=O)C(N)=O)cc1OC (stereo not drawn) [Cpd 50] | 77.09 | 82.4 | 42.79 | 45.7 | –
CCOc1cc(C(=O)NCCCCC(NC(=O)C(CCCCNC(=O)c2cc(OCC)c(OCC)c(OCC)c2)NC(=O)C(CCCCNC(=O)c2cc(OCC)c(OCC)c(OCC)c2)NC(C)=O)C(N)=O)cc(OCC)c1OCC (stereo not drawn) [Cpd 51] | – | 217 | – | 217 | –
COc1cc(C(=O)NCCCCC(NC(=O)C(CCCCNC(=O)c2cc(OC)c(OC)c(OC)c2)NC(=O)C(CCCCNC(=O)c2cc(OC)c(OC)c(OC)c2)NC(C)=O)C(N)=O)cc(OC)c1OC (stereo not drawn) [Cpd 52] | 174.80 | 170 | 226.70 | 221 | –
CCOC(=O)Oc1c(OC)cc(C(=O)NCCCCC(NC(=O)C(CCCCNC(=O)c2cc(OC)c(OC(=O)OCC)c(OC)c2)NC(=O)C(CCCCNC(=O)c2cc(OC)c(OC(=O)OCC)c(OC)c2)NC(C)=O)C(N)=O)cc1OC (stereo not drawn) [Cpd 53] | 90.15 | 75.1 | 114.80 | 95.7 | –
CC(=O)NC(CCCCNC(=O)c1cc(O)c(O)c(O)c1)C(=O)NC(CCCCNC(=O)c1cc(O)c(O)c(O)c1)C(=O)NC(CCCCNC(=O)c1cc(O)c(O)c(O)c1)C(N)=O (stereo not drawn) [Cpd 54] | 6.85 | 7.61 | 3.00 | 3.33 | IC 50 (ug/ml) 1st tier ([1]; Table 8, galloyl constructs): 4 µg/mL (≈ 4.44 µM); IC50 [1, 5]: 5 µM; IC 50 (ug/ml) 2nd tier ([2]; Table 8, galloyl constructs): 2 µg/mL (≈ 2.22 µM); IC50 [2, 6]: 3 µM
CC(=O)NC(CCCCNC(=O)c1ccc(O)cc1)C(=O)NC(CCCCNC(=O)c1ccc(O)cc1)C(=O)NC(CCCCNC(=O)c1ccc(O)cc1)C(N)=O (stereo not drawn) [Cpd 55] | – | 311 | – | 311 | –
CC(=O)NC(CCCCNC(=O)c1cc(O)cc(O)c1)C(=O)NC(CCCCNC(=O)c1cc(O)cc(O)c1)C(=O)NC(CCCCNC(=O)c1cc(O)cc(O)c1)C(N)=O (stereo not drawn) [Cpd 56] | 125.00 | 147 | 125.00 | 147 | –
CNC[C@@H](Cc1ccc2ccccc2c1)N(C)C[C@H](NC(=O)c1cc(O)c(O)c(O)c1)C(C)C [D-Napala, D-Val, Gallic Acid] | – | – | – | – | Av % Inhibition ([1]; 62.5 μg/ml): 4.7%; Av % Inhibition ([1]; 250 μg/ml): 26.8%; Av % Inhibition ([2]; 62.5 μg/ml): 24.2%; Av % Inhibition ([2]; 250 μg/ml): 46.9%
CNC[C@@H](Cc1ccc2ccccc2c1)N(C)C[C@H](Cc1ccc(Cl)cc1)NC(=O)c1cc(O)c(O)c(O)c1 [D-Napala, L-pCl-Phe, Gallic Acid] | – | – | – | – | Av % Inhibition ([1]; 62.5 μg/ml): −14.7%; Av % Inhibition ([1]; 250 μg/ml): 7.4%; Av % Inhibition ([2]; 62.5 μg/ml): 23.4%; Av % Inhibition ([2]; 250 μg/ml): 43.3%
CCC[C@H](CNC)N(C)C[C@H](NC(=O)c1cc(O)c(O)c(O)c1)C(C)C [D-Nve, D-Val, Gallic Acid] | – | – | – | – | Av % Inhibition ([1]; 62.5 μg/ml): 13.7%; Av % Inhibition ([1]; 250 μg/ml): 46%; Av % Inhibition ([2]; 62.5 μg/ml): 12.1%; Av % Inhibition ([2]; 250 μg/ml): 29.8%
